We go through 20 compounds from patent publication US8101774B2, “Ester derivatives and medicinal use thereof” (Japan Tobacco Inc., priority 2004, dated 2012).

For orientation: IC50 means the concentration that inhibits the measured activity by half. The low end stands for greater potency, the high end for weaker potency.

The experiment addresses T1, Microsomal triglyceride transfer protein (MTP) from human small intestine microsome (Homo sapiens, UniProt P55157).
T1 construct: Human small intestine microsome was dialyzed against 10 mM phosphate buffer; tissue Tissue Transforming Technologies, Inc; host or cells: human small intestine microsome
In words: Inhibition test of interliposomal triglyceride (TG) transfer activity by MTP. Format: biochemical. Conditions: purified MTP from human small intestine microsome, 37° C., 1.5 hours. A digest of the protocol: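 DEAE-purified human small intestine MTP (50 μL of 20 μg/mL) incubated 1.5 hours at 37° C with ^14C-triolein donor and unlabelled acceptor SUV liposomes in pH 7.4 Tris buffer with 0.5% BSA. Donor removed on DEAE cellulose; acceptor radioactivity counted, blank-corrected against DMSO control, giving percent inhibition and IC50.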

T1 sequence (P55157 19-894): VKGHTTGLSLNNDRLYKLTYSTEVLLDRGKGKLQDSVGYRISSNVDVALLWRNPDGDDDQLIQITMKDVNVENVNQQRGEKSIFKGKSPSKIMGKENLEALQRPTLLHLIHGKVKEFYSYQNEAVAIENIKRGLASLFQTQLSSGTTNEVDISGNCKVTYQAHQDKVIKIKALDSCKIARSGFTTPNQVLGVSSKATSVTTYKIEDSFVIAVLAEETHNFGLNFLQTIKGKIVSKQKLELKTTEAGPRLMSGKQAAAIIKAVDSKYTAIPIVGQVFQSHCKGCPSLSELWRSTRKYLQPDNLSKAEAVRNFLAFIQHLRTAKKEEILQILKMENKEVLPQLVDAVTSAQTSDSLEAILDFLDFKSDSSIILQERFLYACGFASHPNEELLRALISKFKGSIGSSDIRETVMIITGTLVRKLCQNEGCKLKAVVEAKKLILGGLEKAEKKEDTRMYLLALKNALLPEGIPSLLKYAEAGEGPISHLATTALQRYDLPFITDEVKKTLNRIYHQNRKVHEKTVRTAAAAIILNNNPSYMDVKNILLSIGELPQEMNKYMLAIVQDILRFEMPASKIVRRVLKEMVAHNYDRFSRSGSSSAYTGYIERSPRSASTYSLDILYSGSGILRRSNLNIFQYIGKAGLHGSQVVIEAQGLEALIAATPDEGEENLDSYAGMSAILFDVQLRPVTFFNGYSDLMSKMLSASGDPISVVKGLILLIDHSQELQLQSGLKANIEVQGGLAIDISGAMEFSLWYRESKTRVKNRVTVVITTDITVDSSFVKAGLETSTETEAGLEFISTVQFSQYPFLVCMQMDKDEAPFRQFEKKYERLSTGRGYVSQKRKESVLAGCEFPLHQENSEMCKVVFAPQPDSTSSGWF
T1 sequence (P07237 18-508 partner): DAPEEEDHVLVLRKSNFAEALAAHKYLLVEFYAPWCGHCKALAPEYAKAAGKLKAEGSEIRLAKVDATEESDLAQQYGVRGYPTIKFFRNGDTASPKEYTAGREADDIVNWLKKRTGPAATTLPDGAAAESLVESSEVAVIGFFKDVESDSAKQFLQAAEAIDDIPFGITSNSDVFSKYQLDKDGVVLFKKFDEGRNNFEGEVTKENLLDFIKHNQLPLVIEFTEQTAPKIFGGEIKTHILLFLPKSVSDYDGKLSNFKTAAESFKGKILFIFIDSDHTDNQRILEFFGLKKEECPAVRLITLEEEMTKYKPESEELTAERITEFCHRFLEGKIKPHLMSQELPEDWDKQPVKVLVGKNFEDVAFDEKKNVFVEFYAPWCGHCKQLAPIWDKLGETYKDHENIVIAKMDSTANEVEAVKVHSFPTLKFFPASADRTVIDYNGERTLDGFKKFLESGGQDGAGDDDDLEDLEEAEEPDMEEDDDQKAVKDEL

For `CN(C)C(=O)c1cc(CCCC(=O)Oc2ccc(C(=O)OCc3ccc(C(=O)OC(C)(C)C)cc3)cc2)ccc1NC(=O)c1ccccc1-c1ccc(C(F)(F)F)cc1` [Compound 1-103, 4-[4-(3-dimethylcarbamoyl-4-{(4′-trifluoromethylbiphenyl-2-carbonyl)amino}phenyl)butyryloxy]benzoic acid 4-(t-butoxycarbonyl)benzyl ester], the IC50 is less than 10 nM. The compound `CN(C)C(=O)c1cc(CCCC(=O)Oc2ccc(-c3nnn(CC(=O)OCc4ccccc4)n3)cc2)ccc1NC(=O)c1ccccc1-c1ccc(C(F)(F)F)cc1` [Compound 1-104, 4-(3-dimethylcarbamoyl-4-{(4′-trifluoromethylbiphenyl-2-carbonyl)amino}phenyl)butyric acid 4-(2-benzyloxycarbonylmethyl-2H-tetrazol-5-yl)phenyl ester] had an IC50 of less than 10 nM. The result for `CN(C)C(=O)Cn1nnc(-c2ccc(OC(=O)CCCc3ccc(NC(=O)c4ccccc4-c4ccc(C(F)(F)F)cc4)c(C(=O)N(C)C)c3)cc2)n1` [Compound 1-105, 4-(3-dimethylcarbamoyl-4-{(4′-trifluoromethylbiphenyl-2-carbonyl)amino}phenyl)butyric acid 4-(2-dimethylcarbamoylmethyl-2H-tetrazol-5-yl)phenyl ester] reads less than 10 nM; that for `CC(OC(=O)c1ccc(OC(=O)CCCc2ccc(NC(=O)c3ccccc3-c3ccc(C(F)(F)F)cc3)c(C(=O)N(C)C)c2)cc1)c1ccccc1` (centres unmarked) [Compound 1-106, 4-[4-(3-dimethylcarbamoyl-4-{(4′-trifluoromethylbiphenyl-2-carbonyl)amino}phenyl)butyryloxy]benzoic acid 1-phenylethyl ester], less than 10 nM.

Compound `CN(C)C(=O)c1cc(CCCC(=O)Oc2ccc(C(=O)OC3CCc4ccccc43)cc2)ccc1NC(=O)c1ccccc1-c1ccc(C(F)(F)F)cc1` (centres unmarked) [Compound 1-107, 4-[4-(3-dimethylcarbamoyl-4-{(4′-trifluoromethylbiphenyl-2-carbonyl)amino}phenyl)butyryloxy]benzoic acid indan-1-yl ester] gave an IC50 of less than 10 nM. For the compound `CN(C)C(=O)c1cc(CCCC(=O)Oc2ccc(C(=O)OC3CCCc4ccccc43)cc2)ccc1NC(=O)c1ccccc1-c1ccc(C(F)(F)F)cc1` (centres unmarked) [Compound 1-108, 4-[4-(3-dimethylcarbamoyl-4-{(4′-trifluoromethylbiphenyl-2-carbonyl)amino}phenyl)butyryloxy]benzoic acid 1,2,3,4-tetrahydronaphthalen-1-yl ester], the IC50 is less than 10 nM. The result for `CC(=O)N1CCC(OC(=O)c2ccc(OC(=O)CCCc3ccc(NC(=O)c4ccccc4-c4ccc(C(F)(F)F)cc4)c(C(=O)N(C)C)c3)cc2)CC1` [Compound 1-109, 4-[4-(3-dimethylcarbamoyl-4-{(4′-trifluoromethylbiphenyl-2-carbonyl)amino}phenyl)butyryloxy]benzoic acid 1-acetylpiperidin-4-yl ester] reads less than 10 nM. With `COC(=O)c1cc(C)c(OC(=O)CCCc2ccc(NC(=O)c3ccc(C)nc3-c3ccc(C(F)(F)F)cc3)c(C(=O)N(C)C)c2)c(C(=O)OC)c1` [Compound 1-110, 4-[4-(3-dimethylcarbamoyl-4-{[6-methyl-2-(4-trifluoromethylphenyl)pyridine-3-carbonyl]amino}phenyl)butyryloxy]-5-methylisophthalic acid dimethyl ester] the figure was less than 10 nM; with `COC(=O)c1cc(C(=O)OC(C)C)cc(C)c1OC(=O)CCCc1ccc(NC(=O)c2ccc(C)nc2-c2ccc(C(F)(F)F)cc2)c(C(=O)N(C)C)c1` [Compound 1-111, 4-[4-(3-dimethylcarbamoyl-4-{[6-methyl-2-(4-trifluoromethylphenyl)pyridine-3-carbonyl]amino}phenyl)butyryloxy]-5-methylisophthalic acid 1-isopropyl ester 3-methyl ester], less than 10 nM.

Regarding `CCOC(=O)c1cc(C)c(OC(=O)CCCc2ccc(NC(=O)c3ccc(C)nc3-c3ccc(C(F)(F)F)cc3)c(C(=O)N(C)C)c2)c(Cl)c1` [Compound 1-112, 3-chloro-4-[4-(3-dimethylcarbamoyl-4-{[6-methyl-2-(4-trifluoromethylphenyl)pyridine-3-carbonyl]amino}phenyl)butyryloxy]-5-methylbenzoic acid ethyl ester], the IC50 is less than 10 nM. Compound `COc1cc(C(=O)OCC(=O)N(C)C)cc(Cl)c1OC(=O)CCCc1ccc(NC(=O)c2ccc(C)nc2-c2ccc(C(F)(F)F)cc2)c(C(=O)N(C)C)c1` [Compound 1-113, 3-chloro-4-[4-(3-dimethylcarbamoyl-4-{[6-methyl-2-(4-trifluoromethylphenyl)pyridine-3-carbonyl]amino}phenyl)butyryloxy]-5-methoxybenzoic acid dimethylcarbamoylmethyl ester] gave an IC50 of less than 10 nM. With `COc1cc(C(=O)OCCNC(C)=O)cc(Cl)c1OC(=O)CCCc1ccc(NC(=O)c2ccc(C)nc2-c2ccc(C(F)(F)F)cc2)c(C(=O)N(C)C)c1` [Compound 1-114, 3-chloro-4-[4-(3-dimethylcarbamoyl-4-{[6-methyl-2-(4-trifluoromethylphenyl)pyridine-3-carbonyl]amino}phenyl)butyryloxy]-5-methoxybenzoic acid 2-acetylaminoethyl ester] the figure was less than 10 nM; with `CC(C)n1nnc(-c2ccc(OC(=O)CCCc3ccc(NC(=O)c4ccccc4-c4ccc(C(F)(F)F)cc4)c(C(=O)N(C)C)c3)cc2)n1` [Compound 1-115, 4-(3-dimethylcarbamoyl-4-{(4′-trifluoromethylbiphenyl-2-carbonyl)amino}phenyl)butyric acid 4-(2-isopropyl-2H-tetrazol-5-yl)phenyl ester], less than 10 nM; with `COC(=O)c1ccc(OC(=O)CN(C)Cc2ccc(NC(=O)c3ccccc3-c3ccc(C(F)(F)F)cc3)c(C(=O)N(C)C)c2)cc1` [Compound 2-1, 4-[2-({3-dimethylcarbamoyl-4-[(4′-trifluoromethylbiphenyl-2-carbonyl)amino]benzyl}methylamino)acetoxy]benzoic acid methyl ester], 10 to 100 nM. As to `COC(=O)c1ccc(OC(=O)C2CCN(c3ccc(NC(=O)c4ccccc4-c4ccc(C(F)(F)F)cc4)c(C(=O)N(C)C)c3)CC2)cc1` [Compound 3-1, 1-{3-dimethylcarbamoyl-4-[(4′-trifluoromethylbiphenyl-2-carbonyl)amino]phenyl}piperidine-4-carboxylic acid 4-methoxycarbonylphenyl ester], the concentration for half-maximal inhibition (IC50) is 10 to 100 nM.

On to `COC(=O)c1ccc(OC(=O)C2CCN(c3ccc(NC(=O)c4ccccc4-c4ccc(C(F)(F)F)cc4)c(C(=O)N(C)C)c3)CC2)c(F)c1` [Compound 3-2, 1-{3-dimethylcarbamoyl-4-[(4′-trifluoromethylbiphenyl-2-carbonyl)amino]phenyl}piperidine-4-carboxylic acid 2-fluoro-4-methoxycarbonylphenyl ester], for which the IC50 lay within 10 to 100 nM. Regarding `COC(=O)c1ccc(-c2nc(C)ccc2C(=O)Nc2ccc(CCCC(=O)Oc3c(C)cc(C(=O)OC)cc3Cl)cc2C(=O)N(C)C)cc1` [Compound 4-1, 3-chloro-4-[4-(3-dimethylcarbamoyl-4-{[2-(4-methoxycarbonylphenyl)-6-methylpyridine-3-carbonyl]amino}phenyl)butyryloxy]-5-methylbenzoic acid methyl ester], the IC50 was less than 10 nM. Regarding `COC(=O)c1ccc(-c2nc(C)ccc2C(=O)Nc2ccc(CCCC(=O)Oc3c(C)cc(C(=O)OC)cc3C(=O)OC)cc2C(=O)N(C)C)cc1` [Compound 4-2, 4-[4-(3-dimethylcarbamoyl-4-{[2-(4-methoxycarbonylphenyl)-6-methylpyridine-3-carbonyl]amino}phenyl)butyryloxy]-5-methylisophthalic acid dimethyl ester], the IC50 is less than 10 nM. With `COC(=O)c1ccc(OC(=O)CCCc2ccc(NC(=O)c3ccccc3-c3ccc(C(=O)OC)cc3)c(C(=O)N(C)C)c2)cc1` [Compound 4-3, 2′-{2-dimethylcarbamoyl-4-[3-(4-methoxycarbonylphenoxycarbonyl)propyl]phenyl-carbamoyl}biphenyl-4-carboxylic acid methyl ester], the IC50 is less than 10 nM. `COC(=O)c1ccc(-c2nc(C)ccc2C(=O)Nc2ccc(CCCC(=O)Oc3c(Cl)cc(C(=O)OC)cc3OC)cc2C(=O)N(C)C)cc1` [Compound 4-4, 3-chloro-4-[4-(3-dimethylcarbamoyl-4-{[2-(4-methoxycarbonylphenyl)-6-methylpyridine-3-carbonyl]amino}phenyl)butyryloxy]-5-methoxybenzoic acid methyl ester]: the IC50 was less than 10 nM.
